Results: US11952582B2, “Herbicide-resistance gene and application thereof in plant breeding” (priority 2017, dated 2024)

Columns and labels:
[1] = system: Arabidopsis WT, OE At, OE Pa, OE M3 seedlings; assay: Herbicide resistance after Arabidopsis germination (seedlings transferred to herbicide medium); type: in vivo, Arabidopsis thaliana
Description: In order to further confirm the correctness of the results obtained in the germination test, an analysis experiment on herbicide resistance after Arabidopsis germination was conducted. Arabidopsis seedlings germinated by OE At, OE Pa, OE M3 and WT for 7 days were transferred to ½ MS medium containing different concentrations (0, 100, 250, 500, and 1000 nM) of mesotrione and grown for 1 week. 5 seedlings were treated per genotype with 3 biological replicates. After 1 week, the effect of the herbicide treatment (i.e., albino) was photographed.

[2] = system: Arabidopsis WT, OE At, OE Pa, OE M3 plants; assay: Total chlorophyll and carotenoid content of Arabidopsis rosette leaves; type: in vivo, Arabidopsis thaliana
Description: The leaves (rosette leaves) of 2 week-old plants grown in ^1/2 MS medium containing different concentrations (0, 100, 250, 500 and 1000 nM) of mesotrione were collected, including leaves of OE At, OE Pa, OE M3 and WT. The total chlorophyll and carotenoid were extracted and the content thereof was detected by referring to the method of Lichtenthaler HK (1987). All experiments were repeated biologically 3 times, and the average value was taken.

[3] = system: Arabidopsis WT, OE At, OE Pa, OE M3 potted plants; assay: Herbicide resistance of Arabidopsis at pot level (spray); type: in vivo, Arabidopsis thaliana
Description: 2 week-old Arabidopsis seedlings of WT, OE At, OE Pa, and OE M3 were transplanted into soil-filled pots (12 seedlings per pot) and growth in a phytotron (22° C., 14 h light/10 h dark, 120 μmol m^−2 s^−1 light intensity) for 4 weeks. Then, 5 μM mesotrione solution (prepared with 0.05% Tween-20) were sprayed twice with a treatment interval of 3 days, and compared with the control treatment (0.05% Tween-20 without herbicide). The spray treatment was biologically repeated 3 times. Two weeks after the first herbicide spray, the test results were photographed.

[4] = system: HPPD, VTE1 and VTE3 gene expression in Arabidopsis seedlings; assay: qRT-PCR of HPPD and vitamin E biosynthesis genes in Arabidopsis after herbicide treatment; type: in vivo, Arabidopsis thaliana; details: 250 nM, 6 h
Description: 2 week-old T3 generation seedlings of WT, OE At, OE Pa and OE M3 were used as materials to set up a treatment group and a control group, respectively, wherein the treatment group was continuously cultured in ½ MS liquid medium containing 250 nM mesotrione for 6 h. The total RNA of related materials was extracted using Super Fast Plant RNA Extraction Kit (Beijing Huayueyang Biological Technology Co., Ltd., China). The concentration of RNA samples was measured using NanoDrop ND1000 (Thermo Scientific, USA). RNA samples with an absorbance ratio (at wavelengths of 260/280 nm and 260/230 nm) of approximately 2.0 were selected. The total RNA (1,000 ng) was then used for synthesis of cDNA for reverse transcription using a cDNA synthesis kit (One-step Removal of Transcript gDNA and cDNA Synthesis Super Kit, TransGen).
As for quantitative reverse transcription PCR analysis, 3.0 μL cDNA was used as a template in a 20 μL reaction system to detect the expression levels of HPPD as well as VTE1 and VTE3 genes which encode the key enzymes in the biosynthesis of vitamin E, and actin was used as an internal reference gene. Three technical repetitions were performed on the Bio-Rad CFX96 real-time system. REST software was used for statistical analysis.

[5] = system: WT and T0 OE SDM rice leaves; assay: Malondialdehyde content in rice leaves; type: in vivo; details: 200 μM spray, 1 week
Description: Malondialdehyde (MDA) is an important marker of the degree of oxide film damage. The previous method (Heath and Packer, 1968) for the determination of malondialdehyde content was referred with slight modifications. 1 g of rice leaves were accurately weighed and place to a pre-cooling mortar. 10 mL of pre-cooling 10% trichloroacetic acid (TCA, v/v) was added and grind thoroughly. Then the lapping solution was transfered to a 10 mL centrifuge tube and centrifuged at 4000 rpm for 10 min (4° C.). 2 mL of supernatant was pipetted and mixed with an equal volume of 0.6% 2-Thiobarbituric acid (TBA, v/v), and incubated at 100° C. for 15 min.
Then the reaction solution was cooled at room temperature. The cooled reaction solution was centrifuged at 4000 rpm for 10 min (4° C.). The supernatant was taken and measured absorbance at wavelengths of 450 nm, 532 nm and 600 nm using ultraviolet spectrophotometers, respectively. Each sample was repeated 3 times. The unit of MDA content is nmol g^−1 FW.

[6] = system: WT (William 82) and OE PaHPPD-SDM soybean leaves; assay: Soybean resistance to herbicide at leaf level (leaf coating); type: in vivo; details: leaf coating 0-30 μM, 2 weeks
Description: Transgenic T0 generation OE SDMHPPD and WT soybean (William 82) seedlings were planted in pots and placed in an artificial climate room (27° C., […], light/dark) for growth. After 4 weeks, 0, 1, 5, 10 and 30 μM of mesotrione (prepared with 0.1% Tween-20) and 0.1% Tween-20 were dipped with cotton swabs and evenly coated to the leaves of OE SDMHPPD (OE SDM #12 and OE SDM #13) T0 generation and WT seedlings having a height of 30-40 cm. Then, the phenotype was observed every week, and the experimental result was recorded by taking photos 2 weeks after the treatment.
To further test the resistance of transgenic soybeans to herbicides, 20 μM mesotrione (prepared with 0.1% Tween-20) and 0.1% Tween-20 were dipped with cotton swabs and evenly coated to the trifoliate leaves of 2 week-old WT, OE GmHPPD (OE GmHPPD #9) T1 generation seedlings and OE SDMHPPD (OE SDMHPPD #12) T1 generation. Then, the phenotype was observed every day, and the experimental result was recorded by taking photos 10 days after the treatment.

[7] = biological target: PaHPPD-SDM (Pseudomonas aeruginosa, UniProt Q9I576, A156V/E349K/R282S); details: higher doses in the range 0-60 of herbicide
PaHPPD-SDM, sequence (Q9I576 whole entry A156V/R282S/E349K): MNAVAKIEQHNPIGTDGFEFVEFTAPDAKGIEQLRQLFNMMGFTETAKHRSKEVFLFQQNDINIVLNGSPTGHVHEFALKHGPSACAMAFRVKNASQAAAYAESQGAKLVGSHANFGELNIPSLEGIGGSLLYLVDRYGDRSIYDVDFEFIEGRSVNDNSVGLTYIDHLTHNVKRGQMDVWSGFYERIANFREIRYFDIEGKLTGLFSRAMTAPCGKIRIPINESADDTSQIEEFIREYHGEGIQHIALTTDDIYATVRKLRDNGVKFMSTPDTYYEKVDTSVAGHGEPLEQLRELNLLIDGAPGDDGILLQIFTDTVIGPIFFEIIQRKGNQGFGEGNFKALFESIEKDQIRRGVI
Description: Specifically, the presence of tyrosine aminotransferase in E. coli DH5a can catalyze the production of p-hydroxyphenylpyruvate (4-HPP) from tyrosine, which is used as a substrate for HPPD to produce homogentisic acid (HGA). After further oxidation and polymerization, a brown substance is produced. The addition of HPPD inhibitors will inhibit this reaction, thereby reducing the production of pigment. Therefore, the gradation of pigment can be used as an inhibition index of HPPD activity. […] Through heterologous expression of HPPD mutant genes from different species in E. coli DH5α, the resistance characteristics of E. coli DH5α-mutated gene to triketone herbicides were analyzed by detecting the absorption value of pigment at 405 nm (FIGS. 2-6, 8 and 9).
The PaHPPD mutants obtained by random mutation was cloned into E. coli cells together with wild-type PaHPPD and AtHPPD for comparation and screening.
The bacteria solution shaking cultured overnight at 37° C. was centrifuged, and 200 μL of supernatant was transferred to a sterile 96-well plate (microplate with high throughput characteristics) using a 200 μL pipette on an ultra-clean workbench. The pigment content was measured with a microtiter plate reader at a wavelength of 405 nm (OD405 nm), and the HPPD activity was evaluated according to the size of the OD value.
Then the obtained PaHPPD-SDM mutant was compared with its parental mutants (PaHPPD-M3, PaHPPD-DS18, and PaHPPD-DS73) to understand their ability of brown pigmentation in the presence of triketone herbicides at different doses (0-60 μM). The calculation formula of HPPD activity (%) is as follows: HPPD activity(%)=(Am/Ac)×100
Wherein Am refers to the average value of the absorbance at a specific herbicide dose, and Ac refers to the average value of the absorbance without the herbicide.

In the case of CS(=O)(=O)c1ccc(C(=O)C2C(=O)CCCC2=O)c([N+](=O)[O-])c1 [mesotrione], the cotyledon phenotype ([1]; OE At and OE Pa, 250 nM, 1 week) is reported as “albino”, the “concentration at which seedlings grew well (maximum tolerance concentration of seedlings)” value ([1]; OE M3, 7-day seedlings, 1 week on 1/2 MS medium) is reported as 250 nM and the “concentration at which cotyledons were albino” value ([1]; WT, 7-day seedlings, 1 week on 1/2 MS medium) is reported as 100 nM. For the same compound, the “total chlorophyll and carotenoid content of leaves with the increase of herbicide concentration” value ([2]; WT, OE At, OE Pa and OE M3, 0-1000 nM in 1/2 MS medium) was “decreased”, the “total chlorophyll and carotenoid content of OE M3 compared with WT, OE At and OE Pa” value ([2]; same herbicide concentration) was “significantly higher” and the “maximum tolerance concentration under potted conditions” value ([3]; Arabidopsis overexpressing PaHPPD-M3, sprayed on fully expanded leaves) was 5 µM. For the same compound, the phenotype ([3]; OE M3 line, 5 μM sprayed twice, 2 weeks after first spray) was “grows well”, the “phenotype of new leaves of seedlings” value ([3]; WT, OE At and OE Pa lines, 5 μM sprayed twice, 2 weeks after first spray) was “completely albino” and the “expression levels of HPPD, VTE1 and VTE3 compared with untreated seedlings” value ([4]; OE At, OE Pa and WT lines) was “inhibited to varying degrees”. The “HPPD gene expression level compared with untreated seedlings” value ([4]; OE M3 line) was “basically not inhibited”, the “gene expression levels of VTE1 and VTE3 compared with untreated seedlings” value ([4]; OE M3 line) was “up-regulated” and the “MDA content in WT rice leaves compared with OE SDM rice leaves” value [5] was “significantly higher”. The “concentration at which leaves did not show symptoms of albino (bleaching) and damage” value ([6]; OE PaHPPD-SDM soybean line) was 30 µM, the “concentration at which leaves showed albino (bleaching) symptom” value ([6]; wild-type soybean William 82) was 5 µM and the “resistance by HPPD activity (%) compared with WT, PaHPPD-M3, PaHPPD-DS18 and PaHPPD-DS73” value [7] was “improved the resistance”.
